Laboratory results: ChEMBL document CHEMBL4627392, “Streptomyces albogriseolus SY67903 Produces Eunicellin Diterpenoids Structurally Similar to Terpenes of the Gorgonian Muricella sibogae, the Bacterial Source” (J Nat Prod, 2020)
The source made the active and inactive calls. The calls are words filed in the database; no cut-off is given here.

Assays:
Assay type in all cases: functional, cell-based
[1] = system: MCF7; assay: Cytotoxicity against human MCF7 cells after 44 hrs by MTT assay; conditions: MCF7, 44 h
[2] = system: HCT-116; assay: Cytotoxicity against human HCT116 cells after 44 hrs by MTT assay
[3] = system: MDA-MB-231; assay: Cytotoxicity against human MDA-MB-231 cells after 44 hrs by MTT assay; conditions: MDA-MB-231, 44 h
[4] = system: NCI-H292; assay: Cytotoxicity against human NCI-H292 cells after 44 hrs by MTT assay
[5] = system: HepG2; assay: Cytotoxicity against human HepG2 cells after 44 hrs by MTT assay
[6] = system: A549; assay: Cytotoxicity against human A549 cells after 44 hrs by MTT assay

| Structure (SMILES) | IC50 [1] | IC50 ([2]; HCT-116, 44 h) | IC50 [3] | IC50 ([4]; NCI-H292, 44 h) | IC50 ([5]; HepG2, 44 h) | IC50 ([6]; A549, 44 h) | Activity [2] | Activity [4] | Activity [5] | Activity [6] |
| --- | --- | --- | --- | --- | --- | --- | --- | --- | --- | --- |
| C=C1CC[C@@H](C(C)C)[C@H]2/C=C(/C(=O)OC)CC/C=C(\C(=O)O)[C@H](O)C[C@H]12 | > 100 µM | > 100 µM | > 100 µM | > 100 µM | > 100 µM | > 100 µM |  |  |  |  |
| C=C1CCC(=C(C)C)[C@H]2/C=C(/C(=O)OC)CC/C=C(\C(=O)O)[C@H](O)C[C@H]12 | 5.3 µM |  | 8.6 µM |  |  |  | Active | Active | Active | Active |
